Molecular target: T1, EcoRV (Escherichia coli, UniProt P04390)
T1 construct: gene ecoRVR; restriction endonuclease, dosed in U/mL; homodimer (known biology)
T1 sequence (P04390 2-245): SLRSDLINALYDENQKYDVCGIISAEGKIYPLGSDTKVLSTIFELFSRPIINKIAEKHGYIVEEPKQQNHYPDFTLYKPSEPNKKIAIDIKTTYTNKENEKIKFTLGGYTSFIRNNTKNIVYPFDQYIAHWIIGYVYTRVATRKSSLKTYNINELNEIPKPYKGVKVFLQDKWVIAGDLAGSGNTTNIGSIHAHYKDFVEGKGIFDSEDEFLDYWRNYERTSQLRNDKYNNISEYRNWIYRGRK
Experiment: electrochemical DNA cleavage assay (DPV of methylene blue-labelled DNA on ERGO electrode)
Assay type: biochemical

O=C(O)C1=CC(=C(c2ccc(O)c(C(=O)O)c2)c2ccc(O)c(C(=O)O)c2)C=CC1=O [ATA, aurintricarboxylic acid]
IC50: 96 nM

From publication PMC10886839, “Electrochemical DNA Cleavage Sensing for EcoRV Activity and Inhibition with an ERGO Electrode” (Biosensors, 2024)
